According to the supplement of paper PMC10331698:
± gives the standard deviation of the averaged measurements.

Tests used:
Assay in all cases: LOEC (log10 uM (lowest observed effect concentration))
[1] = compound: C=CC(=O)OCC(F)(F)C(F)(F)C(F)(F)COC(=O)C=C [1H,1H,5H,5H-Perfluoro-1,5-pentanediol diacrylate]
Procedure: (§1)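 BioMAP Diversity Plus panel in human primary cell co-cultures, 4 concentrations in duplicate blinded samples. Responses are log10 fold change versus DMSO control, processed with tcpl v2.1.0. A hit is called when responses at any concentration exceed the cutoff (the larger of 3*bmad or log10(1.2)); the lowest observed effect concentration (modl_ga, log10 uM) is reported for hits.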

[2] = compound: O=S(=O)(Cl)C(F)(F)C(F)(F)C(F)(F)C(F)(F)C(F)(F)C(F)(F)C(F)(F)C(F)(F)F [Perfluoro-1-octanesulfonyl chloride]
Procedure: as §1

[3] = compound: O=C(O)C(F)(F)C(F)(F)C(F)(F)C(F)(F)C(F)(F)C(F)(F)C(F)(F)C(F)(F)C(F)(F)C(F)F [11-H-Perfluoroundecanoic acid]
Procedure: as §1

[4] = compound: NS(=O)(=O)C(F)(F)C(F)(F)C(F)(F)C(F)(F)C(F)(F)C(F)(F)F [Perfluorohexanesulfonamide]
Procedure: as §1

[5] = compound: COC(=O)C(F)(F)C(F)(F)OC(F)(C(F)(F)F)C(F)(F)OC(F)=C(F)F [Methyl perfluoro(3-(1-ethenyloxypropan-2-yloxy)propanoate)]
Procedure: as §1

Test System	LOEC (log10 uM) [1]	LOEC (log10 uM) [2]	LOEC (log10 uM) [3]	LOEC (log10 uM) [4]	LOEC (log10 uM) [5]
4H uPAR down	1.04 ± 1				
BE3C uPA down	1.78	1.78	1.3		
CASM3C uPAR down	1.78				
CASM3C Thrombomodulin up	1.3				
3C IL8 up		1.78			
hDFCGF MCP1 down	0.301		1.78		
IMphg MIP1a down	1.78				
hDFCGF PAI1 down	0.845		1.78		
CASM3C HLADR down	1.3				
KF3CT IL8 down	1.3				
LPS IL8 down	1.3				
BE3C ICAM1 down	1.3	1.78	1.3		
hDFCGF SRB down	0.573 ± 0.39				
BE3C uPAR down	1.78	1.78	1.3	1.78	
hDFCGF IL8 down	0.845				
KF3CT uPA down	1.3		1.78		
SAg CD40 down	0.845		1.78	1.78	
SAg CD69 down	0.845		1.78	1.78	
BF4T tPA down	1.3	1.54 ± 0.34	0.845		
KF3CT MMP9 down	1.3	1.78	1.3		
BE3C Keratin818 down			1.54 ± 0.34		
BE3C ITAC down	1.78	1.78	1.3		0.845
LPS SRB down	1.3		1.78		
BE3C PAI1 down		1.78	1.3	1.54 ± 0.34	
SAg CD38 down	1.07 ± 0.32		1.78		

Test System	LOEC (log10 uM) [1]	LOEC (log10 uM) [2]	LOEC (log10 uM) [3]	LOEC (log10 uM) [4]	LOEC (log10 uM) [5]
3C uPAR down	1.78	1.78			
BT Bcell Proliferation up		1.78			
IMphg IL1a up				1.54 ± 0.34	0.845
3C Thrombomodulin up	1.3	1.78	1.78		
BT PBMCCytotoxicity up		1.78	1.78		
LPS IL1a down	1.3				
BF4T uPA down	1.78	1.78	1.78		
hDFCGF MCSF down	0.301		1.54 ± 0.34		
LPS Thrombomodulin up	1.3		1.31 ± 0.66		
SAg PBMCCytotoxicity up				1.78	
IMphg SRB.Mphg down	1.78		1.78		
hDFCGF TIMP2 down				1.78	
BF4T CD90 down			1.54 ± 0.34		
BT xIL17A down	0.845				
BE3C IL1a down	1.3	1.78	1.3		
IMphg IL8 up				1.78	0.301
MyoF TIMP1 down	1.3				
hDFCGF VCAM1 down	0.301		0.801 ± 0.71		0.845
3C SRB down	1.3	1.78	1.78	1.78	
CASM3C MCP1 down	1.78				
BT xIL17F down	0.301				
CASM3C PAI1 down	1.78				
BT PBMCCytotoxicity down	0.573 ± 0.39				
SAg Eselectin up		1.78			
MyoF bFGF down	1.3				

Test System	LOEC (log10 uM) [1]	LOEC (log10 uM) [2]	LOEC (log10 uM) [3]	LOEC (log10 uM) [4]	LOEC (log10 uM) [5]
BT xIL2 down	0.845				
IMphg SRB down			1.78		
BE3C HLADR down	1.3	1.78	1.3		
CASM3C LDLR down	1.78				
KF3CT MIG down	1.3		1.78		
SAg SRB down	1.3	1.78	1.78		
KF3CT ICAM1 down	1.07 ± 0.32				
KF3CT IP10 down	1.3	1.78	1.3	1.78	
IMphg MCP1 down	1.3		1.78	1.78	
hDFCGF ITAC down	0.301		0.573 ± 0.39	1.78	0.845
hDFCGF ICAM1 down	0.301				
3C MIG down	1.3				
SAg IL8 down	0.845		1.78	1.78	
BF4T IL1a down	1.78	1.78	1.54 ± 0.34		
CASM3C SRB down	1.54 ± 0.34				
BF4T ICAM1 down	1.07 ± 0.32	1.78	1.3		
CASM3C VCAM1 down	0.845				
BE3C MIG down	1.78	1.78	1.3		
BE3C tPA down	1.3	1.78	1.3	1.78	0.0731 ± 0.32
LPS TissueFactor down	1.07 ± 0.32				
MyoF IL8 down	1.3				
BF4T Eotaxin3 down	1.78	1.78	0.801 ± 0.71		
BT xTNFa down	0.301				
4H Pselectin down	1.3				
CASM3C Proliferation down	0.573 ± 0.39				

Test System	LOEC (log10 uM) [1]	LOEC (log10 uM) [2]	LOEC (log10 uM) [3]	LOEC (log10 uM) [4]	LOEC (log10 uM) [5]
LPS Eselectin down	1.3		1.78		
3C MCP1 down	1.3		1.78		
MyoF Decorin down	1.3				
4H MCP1 down	1.3				
CASM3C MIG down	0.845				
hDFCGF TIMP1 down	0.573 ± 0.39				
BF4T VCAM1 down	1.3			1.54 ± 0.34	
KF3CT PAI1 down	1.3	1.3	1.3		
LPS VCAM1 down	1.07 ± 0.32		1.78	1.78	
3C ICAM1 down	1.3				
4H SRB down	1.3		1.78	1.78	
IMphg ESelectin down	1.3			1.78	
BT xIL6 down	0.573 ± 0.39				
BE3C IL8 down	1.3	1.78		1.3	
SAg PBMCCytotoxicity down	0.845				
CASM3C IL8 down	1.3				
IMphg VCAM1 down	1.07 ± 0.32		1.78		
KF3CT TIMP2 down	1.78				
LPS PGE2 up				1.54 ± 0.34	
LPS CD40 down	0.845		1.78	1.78	
IMphg MCSF down				1.07 ± 0.32	
BF4T SRB down	1.78	1.78	1.3		
BF4T MMP3 down			1.78		
SAg Eselectin down	0.845		1.78	1.78	
IMphg CD40 down	1.3			1.78	

Test System	LOEC (log10 uM) [1]	LOEC (log10 uM) [2]	LOEC (log10 uM) [3]	LOEC (log10 uM) [4]	LOEC (log10 uM) [5]
BE3C MMP9 down	1.3	1.78	1.07 ± 0.32	1.78	
KF3CT SRB down	1.3		1.78		
KF3CT IL1a down	0.573 ± 0.39		1.78		
3C IL8 down	1.3				
BE3C EGFR down		1.78	1.3		
BF4T MCP1 down	1.3	1.78	0.573 ± 0.39	1.78	
4H Eotaxin3 down	0.845		1.78	1.78	
3C Eselectin up		1.78			
4H VCAM1 down	1.3		1.78		
BT Bcell Proliferation down	0.845				
SAg MIG down	1.3				
hDFCGF SRB up					0.301
3C Eselectin down	0.573 ± 0.39				
CASM3C SAA down	1.78				
BF4T MMP9 down	1.3	1.78	1.3		
3C TissueFactor down	0.845				
CASM3C IL6 down	1.3				
BF4T MMP3 up					0.845
BT sIgG down	0.845				
hDFCGF MIG down	0.301		0.573 ± 0.39		
CASM3C MCSF down	1.3				
LPS MCP1 down	1.3		1.78		
hDFCGF MMP1 down	0.845				
3C HLADR down	1.07 ± 0.32			1.78	
LPS MCSF down	1.3				

Test System	LOEC (log10 uM) [1]	LOEC (log10 uM) [2]	LOEC (log10 uM) [3]	LOEC (log10 uM) [4]	LOEC (log10 uM) [5]
hDFCGF MCP1 up				1.78	
hDFCGF Proliferation down	0.301		0.845	1.78	
3C Proliferation down	0.301		1.78	1.78	
MyoF PAI1 down	1.3		1.78		
BE3C SRB down		1.78	1.3		
LPS TNFa down	1.3				
BE3C IP10 down	1.54 ± 0.34	1.3	0.845	1.54 ± 0.34	
BF4T Keratin818 down	1.78		1.78		
KF3CT MCP1 down	1.3		1.3		
LPS PGE2 down	1.3	1.78	1.78		
hDFCGF IP10 down	0.301		0.573 ± 0.39	1.54 ± 0.34	0.845
SAg Proliferation down	0.301		1.78		
IMphg IL8 down	1.78				
IMphg CD69 down	1.78			1.78	
hDFCGF CollagenIII down	0.573 ± 0.39		0.845		
BF4T PAI1 down	1.3	1.78	0.801 ± 0.71		
IMphg IL10 down	1.3	1.78	1.78	1.78	
LPS CD69 down	1.3		1.78	1.78	
SAg MCP1 down	0.845		1.78		
BE3C MMP1 up				1.78	0.573 ± 0.39
3C VCAM1 down	0.845				
